From paper PMC5104426, “Screening a Phage Display Library for Two Novel OmpU-Binding Peptides with Adhesion Antagonistic Activity against Vibrio mimicus” (PLoS ONE, 2016) come the findings set out here.

Series [1] has as its system rOmpU fusion protein adhesion to EPC cells. The series can be described thus: Fluorescence-based adhesion assay: rOmpU protein adhesion to EPC cells. The format is cell-based, Vibrio mimicus. Particulars: 500 μg/mL peptide mixed with equal volume of 500 μg/mL rOmpU, 1 h 28°C, then 1 h on fixed EPC cells; anti-OmpU/FITC immunofluorescence; triplicate. Here is the method: Synthetic OmpU-binding peptides were measure for their ability to antagonize OmpU protein adhesion to EPC cells by fluorescence-based adhesion assay. Briefly, EPC cells (1 × 10^6 cells/mL) were seeded in 24-well cell plate containing coverslip (Corning, NY, USA) and cultured to 80% confluence. The cells were gently washed 3 times with PBS and fixed with 4% paraformaldehyde at room temperature for 15 min. After 3 washes with PBS, cells were permeabilized with 0.5% Triton X-100 (500 μL/well) for 15 min. The cells were then washed 3 times with PBS and blocked with 2% BSA for 30 min. Subsequently, 500 μg/mL of each OmpU-binding peptide or irrelevant control peptide (used as negative control) solution were respectively mixed with an equal volume of 500 μg/mL rOmpU fusion protein, and the mixture was incubated for 1 h at 28°C and added to each well. The plates were incubated for 1 h at 28°C. After 3 washes, purified rabbit anti-OmpU antibody (prepared in our previous studies) at a dilution of 1:200 in PBS was added to each well and incubated for 1 h at 28°C, followed by 3 washes in PBS. A 1:100 dilution of FITC (fluorescein isothiocyanate)-labeled goat anti-rabbit IgG (Jackson ImmunoResearch Laboratories, Inc., USA) was added to each well and incubated in the dark for 1 h. After 3 washes in PBS, 4,6-Diamidino-2-phenylindole dihydrochloride (DAPI; Ziyi Reagent Co., Shanghai, China) was used to stain the nucleus, and the coverslips were observed under a fluorescence microscope. Each experiment was performed in triplicate, each sample being tested in three wells.

Series [2] deals with grass carps. The experiment in a line: Acute toxicity to grass carps. Particulars: 100 mg/kg i.p., six fish per group; for survival in the 7-day study period: 7 days. The format is in vivo, Ctenopharyngodon idella. The procedure: Healthy grass carps weighting 50–52 g were purchased from a commercial fish farm in Anhui province of China, and then were maintained in a flow-through water system at a temperature of 25 ± 1°C and fed commercial pellets on a daily basis. After 14 days when grass carps were confirmed to be healthy, the water temperature was increased to 28 ± 1°C slowly, and the experiment began.
For acute toxicity detection, synthetic P1, P2 and unrelated control peptide was dissolved in sterile deionized water, respectively, and given to grass carps by intraperitoneal (i.p.) injection at a dose of 100 mg/kg, six fish per group. The number of fish surviving in each group was monitored for up to a period of 7 days after injection. At the end of the experiments, all surviving fish were euthanized in a solution of 200 mg/L of MS-222 followed by a blow to the head.

The subject of series [3] is V. mimicus 04–14 isolate adhesion to EPC cells. The experiment in a line: Peptide adhesion inhibition test: V. mimicus adhesion to EPC cells. The format is cell-based, Vibrio mimicus. The following applies: 500 μg/mL peptide mixed with equal volume of V. mimicus 04–14 (2 × 10^7 CFU/mL), 1 h 28°C, then 1 h on EPC cells, crystal violet, 30 cells counted, mean ± SD, triplicate. Here is the method:
When EPC cells grown in 24-well plate containing coverslips formed a confluent monolayer, the medium was changed to RPMI-1640 medium without serum and antibiotics for 2 h. Subsequently, 500 μg/mL of each OmpU-binding peptide or unrelated control peptide solution were respectively mixed with an equal volume of V. mimicus isolate 04–14 suspension (2 × 10^7 CFU/mL) and incubated for 1 h at 28°C. The mixture was added to each well, and then the plates were incubated for 1 h at 28°C. After 3 times washes, EPC cells were fixed with cooled methanol for 10 min, stained with crystal violet and examined under a light microscope at a magnification of ×1,000. Thirty cells were randomly selected to count the number of adhering bacterial per slide. Each experiment was performed in triplicate, with each sample being repeated in 3 cell wells.

Series [4] has as its system rOmpU fusion protein. The series can be described thus: Solid phase non-competitive ELISA (Beatty method), affinity constant. Format: binding, Vibrio mimicus. The following applies: for affinity constant: peptide coated 2.5-40 μg/mL, rOmpU 0.2-12.8 μg/mL, modified Beatty formula, triplicate, mean ± SD, SD; for AAP concentration at 50% OD492nm: from fitted curve equation. Here is the method:
To determine the binding affinity of interactions between adhesion antagonistic peptide and rOmpU fusion protein, solid phase non-competitive ELISA method (also known as the Beatty method) was used to measure the affinity constant of adhesion antagonistic peptide. Briefly, adhesion antagonistic peptides were diluted to 40 μg/mL, 20 μg/mL, 10 μg/mL, 5 μg/mL and 2.5 μg/mL, respectively, and laterally coated onto plate wells (100 μL/well) at 4°C overnight. Next day, each well was blocked with 5% BSA at 37°C for 2 h, and then washed 6 times with TBST. Subsequently, rOmpU fusion protein were diluted to 12.8 μg/mL, 3.2 μg/mL, 0.8 μg/mL and 0.2 μg/mL, respectively, and longitudinally added to coated wells (100 μL/well), and the plates were incubated for 2 h at 37°C. After thorough washing, rabbit anti-rOmpU protein antibody, HRP labeled goat anti-rabbit IgG and substrate solution was added in turn, each step was preceded by 6 washes in TBST. OD492 nm values were finally determined. With OD492nm values as the ordinate and adhesion antagonistic peptide concentration as the abscissa, the binding reaction curves between adhesion antagonistic peptide and rOmpU fusion protein at different concentrations were plotted. MATLAB version 7.0 was used to fitting the binding response curve, and to derive the curve equation. From the equation, the corresponding adhesion antagonistic peptide concentration at 50% OD492nm value in the curve was obtained. The affinity constant K was calculated using a modified version of the Beatty formula [affinity constant (K) = (n—1) / 2 (nAb'total- Abtotal)] [11]. Ab'total and Abtotal in the formula represent respectively the corresponding adhesion antagonistic peptide concentration at 50% OD492nm value in the binding response curve when the concentration of rOmpU protein was P' and P; n represents P/P'. This assay was performed in triplicate.

“And” between values parts separate entries of the source, which are not always exact repeats. Equal entries are not always repeated.

Take “SCTSPHCFMWLP [P2, adhesion antagonistic peptide]”: the “green fluorescence on the surface of EPC cells (surface-retained rOmpU)” value in series [1] is “little or no green fluorescence”. For the same sequence, the “immediate adverse events (enervation or feed intake reduction)” value in series [2] is recorded as “no immediate adverse events”. Besides, in series [2], the “survival in the 7-day study period” value was “all the treated fish survived”. Moreover, in series [3], the “average number of adhesion around each cell” value turned out to be 3.4 ± 0.8. The affinity constant result in series [4] is recorded as “(1.24 ± 0.56) × 10^9 L/mol”. Further, the “AAP concentration at 50% OD492nm” value worked out at 0.70 µg/mL in series [4] (rOmpU concentration 0.2 μg/mL), 0.57 µg/mL in series [4] (rOmpU concentration 0.8 μg/mL), 0.56 µg/mL in series [4] (rOmpU concentration 3.2 μg/mL) and 0.55 µg/mL in series [4] (rOmpU concentration 12.8 μg/mL).
Consider “TWTCSDVICTAR [P1, adhesion antagonistic peptide]”, for which the “green fluorescence on the surface of EPC cells (surface-retained rOmpU)” value in series [1] is on record as “little or no green fluorescence”. The “immediate adverse events (enervation or feed intake reduction)” value in series [2] is “no immediate adverse events”. Also, the “survival in the 7-day study period” value in series [2] is “all the treated fish survived”. Further, in series [3], the “average number of adhesion around each cell” value is 5.1 ± 0.7 and 5.1 ± 0.6. In series [4], the affinity constant result was “(6.17 ± 0.19) × 10^8 L/mol”. The “AAP concentration at 50% OD492nm” value is 1.12 µg/mL in series [4] (rOmpU concentration 0.2 μg/mL), 1.05 µg/mL in series [4] (rOmpU concentration 0.8 μg/mL), 0.98 µg/mL in series [4] (rOmpU concentration 3.2 μg/mL) and 0.86 µg/mL in series [4] (rOmpU concentration 12.8 μg/mL).
